Active and inactive are the calls of the source. The rule behind the calls is not given here.
What was measured:
D(3) dopamine receptor [1] = target: T1, D(3) dopamine receptor (Homo sapiens, UniProt P35462); experiment: GPCRScan assay: inhibition of D3; design: radioligand conc. used [nm] 0.5 – 1.8, parental cells HEKT
[2] = target: GABA-A receptor; anion channel; experiment: GPCRScan assay: inhibition of GABAA/BZP; type: protein-complex assay, Rattus norvegicus; design: radioligand conc. used [nm] 0.6 – 4.0, parental cells brain tissue
[3] = target: T2, Bromodomain-containing protein 2 (Homo sapiens, UniProt P25440); experiment: TR-FRET assay (BRD2 BD1)
Target sequence in this assay (P25440 whole entry): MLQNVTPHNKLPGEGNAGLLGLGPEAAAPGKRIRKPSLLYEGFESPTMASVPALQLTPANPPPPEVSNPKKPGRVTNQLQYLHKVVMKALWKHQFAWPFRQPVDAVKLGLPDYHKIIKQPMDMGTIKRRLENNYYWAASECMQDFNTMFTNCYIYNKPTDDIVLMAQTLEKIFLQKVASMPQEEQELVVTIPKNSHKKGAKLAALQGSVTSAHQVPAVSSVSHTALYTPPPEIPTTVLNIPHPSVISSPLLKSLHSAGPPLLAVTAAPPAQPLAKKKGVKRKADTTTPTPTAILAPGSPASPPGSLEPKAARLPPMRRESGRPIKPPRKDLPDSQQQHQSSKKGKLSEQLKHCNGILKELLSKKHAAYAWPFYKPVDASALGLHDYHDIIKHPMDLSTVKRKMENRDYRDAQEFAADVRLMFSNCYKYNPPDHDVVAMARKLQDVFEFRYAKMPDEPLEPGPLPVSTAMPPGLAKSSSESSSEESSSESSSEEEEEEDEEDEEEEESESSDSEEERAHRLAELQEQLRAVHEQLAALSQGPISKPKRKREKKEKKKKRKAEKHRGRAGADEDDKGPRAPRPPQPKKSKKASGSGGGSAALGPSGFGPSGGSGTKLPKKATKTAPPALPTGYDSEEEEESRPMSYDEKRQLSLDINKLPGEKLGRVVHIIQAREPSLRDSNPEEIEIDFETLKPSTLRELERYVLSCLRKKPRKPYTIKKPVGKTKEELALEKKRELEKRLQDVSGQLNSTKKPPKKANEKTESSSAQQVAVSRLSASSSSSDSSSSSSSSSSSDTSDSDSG

[4] = target: T2, Bromodomain-containing protein 2; experiment: TR-FRET assay (BRD2 BD2)
Target sequence in this assay (P25440 whole entry): as above

[5] = target: T3, Bromodomain-containing protein 3 (Homo sapiens, UniProt Q15059); experiment: TR-FRET assay (BRD3 BD2)
Target sequence in this assay (Q15059 whole entry): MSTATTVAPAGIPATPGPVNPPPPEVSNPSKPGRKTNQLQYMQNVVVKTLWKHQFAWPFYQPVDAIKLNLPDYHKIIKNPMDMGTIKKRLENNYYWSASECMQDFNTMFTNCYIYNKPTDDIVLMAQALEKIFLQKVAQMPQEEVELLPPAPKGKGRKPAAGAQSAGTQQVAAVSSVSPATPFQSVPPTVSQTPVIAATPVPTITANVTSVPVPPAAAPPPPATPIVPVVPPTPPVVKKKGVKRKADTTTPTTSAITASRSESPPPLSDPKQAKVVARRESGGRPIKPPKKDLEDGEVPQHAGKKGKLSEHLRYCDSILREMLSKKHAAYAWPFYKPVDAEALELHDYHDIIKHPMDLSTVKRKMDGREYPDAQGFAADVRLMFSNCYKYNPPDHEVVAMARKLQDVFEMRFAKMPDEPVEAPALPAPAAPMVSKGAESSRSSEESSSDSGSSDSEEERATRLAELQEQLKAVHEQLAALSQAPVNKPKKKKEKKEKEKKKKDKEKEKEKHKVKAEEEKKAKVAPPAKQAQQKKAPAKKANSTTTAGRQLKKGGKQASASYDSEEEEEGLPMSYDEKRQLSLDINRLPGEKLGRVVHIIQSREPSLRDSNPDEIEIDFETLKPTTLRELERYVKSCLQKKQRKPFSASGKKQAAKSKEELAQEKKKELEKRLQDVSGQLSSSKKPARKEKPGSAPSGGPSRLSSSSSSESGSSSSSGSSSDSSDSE

[6] = target: T2, Bromodomain-containing protein 2; experiment: BET mutant TR-FRET assay (BRD2 BD1)
Target sequence in this assay (P25440 whole entry, looked up, change not shown): as the sequence (P25440 whole entry) above

[7] = target: T2, Bromodomain-containing protein 2; experiment: BET mutant TR-FRET assay (BRD2 BD2)
Target sequence in this assay (P25440 whole entry, looked up, change not shown): as the sequence (P25440 whole entry) above

[8] = target: T3, Bromodomain-containing protein 3; experiment: BET mutant TR-FRET assay (BRD3 BD2)
[9] = target: T2, Bromodomain-containing protein 2; experiment: BRD2 Bromoscan (DiscoverX)
Target sequence in this assay (P25440 whole entry): as above

[10] = target: ATPase family AAA domain-containing protein 2 (Homo sapiens, UniProt Q6PL18); experiment: ATAD2A DiscoverX BROMOscan
[11] = target: T3, Bromodomain-containing protein 3; experiment: BRD3(2) DiscoverX BROMOscan
Target sequence in this assay (Q15059 whole entry): as the sequence (Q15059 whole entry) above

[12] = target: Bromodomain-containing protein 7 (Homo sapiens, UniProt Q9NPI1); experiment: BRD7 DiscoverX BROMOscan
Peregrin = Peregrin (Homo sapiens, UniProt P55201); experiment: BRPF1 DiscoverX BROMOscan
[13] = target: Bromodomain and PHD finger-containing protein 3 (Homo sapiens, UniProt Q9ULD4); experiment: BRPF3 DiscoverX BROMOscan
[14] = target: Chromatin remodeling regulator CECR2 (Homo sapiens, UniProt Q9BXF3); experiment: CECR2 DiscoverX BROMOscan
[15] = target: Histone acetyltransferase KAT2A (Homo sapiens, UniProt Q92830); experiment: GCN5L2 DiscoverX BROMOscan
Protein polybromo-1 [16] = target: T4, Protein polybromo-1 (Homo sapiens, UniProt Q86U86); experiment: PBRM1(2) DiscoverX BROMOscan
Protein polybromo-1 [17] = target: T4, Protein polybromo-1; experiment: PBRM1(5) DiscoverX BROMOscan
[18] = target: Histone acetyltransferase KAT2B (Homo sapiens, UniProt Q92831); experiment: PCAF DiscoverX BROMOscan
[19] = target: Transcription initiation factor TFIID subunit 1 (Homo sapiens, UniProt P21675); experiment: TAF1(2) DiscoverX BROMOscan
[20] = target: Transcription initiation factor TFIID subunit 1-like (Homo sapiens, UniProt Q8IZX4); experiment: TAF1L(2) DiscoverX BROMOscan
[21] = target: Transcription intermediary factor 1-alpha (Homo sapiens, UniProt O15164); experiment: TRIM24(PHD,Bromo.) DiscoverX BROMOscan
[22] = target: E3 ubiquitin-protein ligase TRIM33 (Homo sapiens, UniProt Q9UPN9); experiment: TRIM33(PHD,Bromo.) DiscoverX BROMOscan
Cytochrome P450 3A4 = Cytochrome P450 3A4 (Homo sapiens, UniProt P08684); experiment: (§1) Cross screening panel
[23] = target: Voltage-gated potassium channel, IKs; KCNQ1(Kv7.1)/KCNE1(MinK) (Homo sapiens, UniProt P15382+P51787); experiment: as §1; type: protein-complex assay
[24] = target: 5-hydroxytryptamine receptor 1D (Homo sapiens) (UniProt P28221); settings: Compound concentration 10.0 uM
[25] = target: 5-hydroxytryptamine receptor 2A (Homo sapiens, UniProt P28223); settings: Compound concentration 10.0 uM
[26] = target: 5-hydroxytryptamine receptor 2C (Homo sapiens) (UniProt P28335); settings: Compound concentration 10.0 uM
[27] = target: 5-hydroxytryptamine receptor 3A (Homo sapiens) (UniProt P46098); settings: Compound concentration 10.0 uM
[28] = target: 5-hydroxytryptamine receptor 6 (Homo sapiens) (UniProt P50406); settings: Compound concentration 10.0 uM
[29] = target: 5-hydroxytryptamine receptor 7 (Homo sapiens) (UniProt P34969); settings: Compound concentration 10.0 uM
D(1A) dopamine receptor = D(1A) dopamine receptor (Homo sapiens, UniProt P21728); settings: Compound concentration 10.0 uM
D(3) dopamine receptor [30] = target: T1, D(3) dopamine receptor; settings: Compound concentration 10.0 uM
[31] = target: Sodium-dependent serotonin transporter (Homo sapiens, UniProt P31645); settings: Compound concentration 10.0 uM
[32] = target: Sodium-dependent noradrenaline transporter (Homo sapiens, UniProt P23975); settings: Compound concentration 10.0 uM
[33] = target: Sodium-dependent dopamine transporter (Homo sapiens) (UniProt Q01959); settings: Compound concentration 10.0 uM
[34] = target: Kappa-type opioid receptor (Homo sapiens, UniProt P41145); settings: Compound concentration 10.0 uM
[35] = target: GABA-A receptor; anion channel (Rattus norvegicus) (UniProt O09028+P15431+P18506+P18508+P19969+P20236+P23574+P23576+P28471+P28473+P30191+P62813+P63079+P63138+Q91ZM7+Q9ES14); settings: Compound concentration 10.0 uM
Histamine H1 receptor = Histamine H1 receptor (Homo sapiens, UniProt P35367); settings: Compound concentration 10.0 uM
[36] = target: Histamine H3 receptor (Homo sapiens) (UniProt Q9Y5N1); settings: Compound concentration 10.0 uM
[37] = target: Alpha-1A adrenergic receptor (Homo sapiens) (UniProt P35348); settings: Compound concentration 10.0 uM
[38] = target: Alpha-1B adrenergic receptor (Homo sapiens) (UniProt P35368); settings: Compound concentration 10.0 uM
[39] = target: Alpha-2C adrenergic receptor (Homo sapiens) (UniProt P18825); settings: Compound concentration 10.0 uM
[40] = target: Muscarinic acetylcholine receptor M1 (Homo sapiens) (UniProt P11229); settings: Compound concentration 10.0 uM
[41] = target: Muscarinic acetylcholine receptor M2 (Homo sapiens) (UniProt P08172); settings: Compound concentration 10.0 uM
[42] = target: Muscarinic acetylcholine receptor M4 (Homo sapiens) (UniProt P08173); settings: Compound concentration 10.0 uM
Rattus norvegicus = organism: Rattus norvegicus; settings: Compound concentration 10.0 uM
[43] = target: Alpha-1D adrenergic receptor (Homo sapiens) (UniProt P25100); settings: Compound concentration 10.0 uM
[44] = target: Sigma intracellular receptor 2 (Homo sapiens) (UniProt Q5BJF2); settings: Compound concentration 10.0 uM
[45] = target: Sigma non-opioid intracellular receptor 1 (Homo sapiens) (UniProt Q99720); settings: Compound concentration 10.0 uM

T1 sequence (P35462 whole entry): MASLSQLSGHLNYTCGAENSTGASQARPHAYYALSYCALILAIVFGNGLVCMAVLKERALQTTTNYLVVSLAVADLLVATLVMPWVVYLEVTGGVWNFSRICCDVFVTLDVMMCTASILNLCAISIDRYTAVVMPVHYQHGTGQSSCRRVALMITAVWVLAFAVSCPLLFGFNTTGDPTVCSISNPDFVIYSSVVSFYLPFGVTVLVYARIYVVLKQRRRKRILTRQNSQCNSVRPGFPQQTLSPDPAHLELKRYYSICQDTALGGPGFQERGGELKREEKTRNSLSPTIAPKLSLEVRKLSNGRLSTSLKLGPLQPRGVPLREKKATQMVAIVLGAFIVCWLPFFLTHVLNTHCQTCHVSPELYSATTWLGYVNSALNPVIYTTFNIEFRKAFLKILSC
T4 sequence (Q86U86 whole entry): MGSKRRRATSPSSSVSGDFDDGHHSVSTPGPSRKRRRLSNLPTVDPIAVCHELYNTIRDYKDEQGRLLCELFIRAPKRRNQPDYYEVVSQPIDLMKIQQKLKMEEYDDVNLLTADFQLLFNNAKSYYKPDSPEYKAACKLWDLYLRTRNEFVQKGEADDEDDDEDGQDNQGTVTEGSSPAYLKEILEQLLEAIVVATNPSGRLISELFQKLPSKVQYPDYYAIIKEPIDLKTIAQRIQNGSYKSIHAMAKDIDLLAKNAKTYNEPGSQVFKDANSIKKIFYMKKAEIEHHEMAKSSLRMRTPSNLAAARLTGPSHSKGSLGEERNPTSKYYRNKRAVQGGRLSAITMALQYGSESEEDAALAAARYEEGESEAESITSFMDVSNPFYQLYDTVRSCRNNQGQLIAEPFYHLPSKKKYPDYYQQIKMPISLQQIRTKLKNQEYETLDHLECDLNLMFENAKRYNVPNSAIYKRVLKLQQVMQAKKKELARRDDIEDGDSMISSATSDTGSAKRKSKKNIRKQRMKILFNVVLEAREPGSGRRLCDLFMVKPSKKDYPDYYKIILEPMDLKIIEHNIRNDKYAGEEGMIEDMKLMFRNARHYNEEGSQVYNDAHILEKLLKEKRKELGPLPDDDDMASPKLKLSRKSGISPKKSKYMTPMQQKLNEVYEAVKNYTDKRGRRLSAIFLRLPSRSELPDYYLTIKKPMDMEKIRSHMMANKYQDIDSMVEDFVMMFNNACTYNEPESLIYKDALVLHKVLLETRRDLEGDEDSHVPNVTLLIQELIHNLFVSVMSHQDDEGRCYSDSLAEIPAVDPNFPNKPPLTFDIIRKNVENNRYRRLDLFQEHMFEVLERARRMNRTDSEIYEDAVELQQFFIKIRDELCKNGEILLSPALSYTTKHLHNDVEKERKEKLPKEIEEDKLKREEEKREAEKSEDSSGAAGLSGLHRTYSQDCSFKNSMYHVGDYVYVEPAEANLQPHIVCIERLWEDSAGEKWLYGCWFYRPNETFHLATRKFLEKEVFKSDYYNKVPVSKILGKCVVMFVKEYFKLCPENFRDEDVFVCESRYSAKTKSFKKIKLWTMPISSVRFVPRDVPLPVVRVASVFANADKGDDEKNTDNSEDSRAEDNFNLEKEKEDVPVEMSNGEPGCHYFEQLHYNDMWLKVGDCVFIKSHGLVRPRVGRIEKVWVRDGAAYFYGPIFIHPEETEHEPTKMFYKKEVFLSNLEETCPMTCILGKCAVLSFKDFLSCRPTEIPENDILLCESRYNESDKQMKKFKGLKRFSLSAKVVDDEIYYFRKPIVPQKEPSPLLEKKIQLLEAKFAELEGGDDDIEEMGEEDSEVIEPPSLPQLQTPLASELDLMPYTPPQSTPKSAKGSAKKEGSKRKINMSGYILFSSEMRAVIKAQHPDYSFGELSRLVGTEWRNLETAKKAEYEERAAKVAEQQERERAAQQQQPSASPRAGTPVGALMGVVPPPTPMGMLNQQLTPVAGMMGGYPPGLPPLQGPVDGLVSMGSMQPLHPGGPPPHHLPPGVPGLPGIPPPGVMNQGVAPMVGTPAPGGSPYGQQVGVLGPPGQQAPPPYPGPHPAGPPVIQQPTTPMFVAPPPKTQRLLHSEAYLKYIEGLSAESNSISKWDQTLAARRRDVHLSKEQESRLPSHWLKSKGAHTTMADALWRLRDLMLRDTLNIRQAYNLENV
Sequence of 5-hydroxytryptamine receptor 2C (Homo sapiens) (P28335 whole entry): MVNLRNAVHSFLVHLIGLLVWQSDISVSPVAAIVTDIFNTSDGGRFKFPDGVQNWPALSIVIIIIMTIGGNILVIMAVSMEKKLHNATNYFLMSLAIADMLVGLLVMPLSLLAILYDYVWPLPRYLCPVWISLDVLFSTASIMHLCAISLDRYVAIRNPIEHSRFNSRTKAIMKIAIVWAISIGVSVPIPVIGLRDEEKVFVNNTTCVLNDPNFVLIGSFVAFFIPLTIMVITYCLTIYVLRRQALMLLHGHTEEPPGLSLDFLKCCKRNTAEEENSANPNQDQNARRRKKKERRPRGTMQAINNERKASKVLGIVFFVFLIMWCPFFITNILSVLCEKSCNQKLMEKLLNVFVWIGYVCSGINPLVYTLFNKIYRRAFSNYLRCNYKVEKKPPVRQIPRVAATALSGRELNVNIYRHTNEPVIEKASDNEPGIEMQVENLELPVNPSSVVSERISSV

Compound COCc1nc2cnc3cc(-c4c(C)noc4C)c(OC[C@H]4CCNC4)cc3c2n1[C@H](C)c1ccccc1 [GSK778] has a Ki (D(3) dopamine receptor [1]; read-out: Ki) of 486 nM, a Ki (D(3) dopamine receptor [1]; read-out: pKi (converted)) of 407 nM and a Ki [2] of 1970 nM. The pKi [2] was 5.75, the IC50 [3] was 75 nM (active) and the IC50 [4] was 3.95 µM (not active). For the same compound, the IC50 [5] was 1.21 µM (not active), the pIC50 [6] was 7.1 and the pIC50 [7] was 5.5. The pIC50 [8] was 6, the Kd [9] was 13 nM (active) and the Kd [10] was 30 µM. It also gave a Kd [11] of 310 nM, a Kd [12] of 30 µM and a Kd (Peregrin) of 15 µM. The Kd [13] was 30 µM, the Kd [14] was 30 µM and the Kd [15] was 30 µM. The Kd (Protein polybromo-1 [16]) was 29 µM, the Kd (Protein polybromo-1 [17]) was 30 µM and the Kd [18] was 33 µM. It also gave a Kd [19] of 30 µM, a Kd [20] of 30 µM and a Kd [21] of 30 µM. It also gave a Kd [22] of 30 µM, an IC50 (Cytochrome P450 3A4) of 1000 nM and an IC50 [23] greater than 25.1 µM. For the same compound, the inhibition [24] was 14.8%, the inhibition [25] was -5.06% and the inhibition [26] was -0.02%. The inhibition [27] was 69.8%, the inhibition [28] was -9.08% and the inhibition [29] was -5.39%. For the same compound, the inhibition (D(1A) dopamine receptor) was 2.89%, the inhibition (D(3) dopamine receptor [30]) was 62.4% and the inhibition [31] was 10.7%. It also gave an inhibition [32] of 34.5%, an inhibition [33] of 27.9% and an inhibition [34] of 15.5%. The inhibition [35] was 52.7%, the inhibition (Histamine H1 receptor) was 0.33% and the inhibition [36] was -5.03%. For the same compound, the inhibition [37] was 0.31%, the inhibition [38] was 4.2% and the inhibition [39] was 15.3%. The inhibition [40] was -1.37%, the inhibition [41] was 4.05% and the inhibition [42] was 15.7%. It also gave an inhibition (Rattus norvegicus) of 7.75%, an inhibition [43] of 17% and an inhibition [44] of 23%. It also gave an inhibition [45] of 38.5%.

Source: ChEMBL document CHEMBL4630907 (2021)
